Test results reported in patent publication US5886178A, “3-aroylbenzylpyridazinone derivatives” (Syntex (U.S.A.) Inc., priority 1997, dated 1999).

Key:
COX II [1] = biological target: T1, COX II (Homo sapiens, UniProt P35354); assay: Inhibition of COX II in a cell based assay (human foreskin fibroblasts, PGE2 ELISA); parameters: host or cells: primary human foreskin fibroblasts (HFF), induced with PMA and human interleukin-1; settings: human foreskin fibroblasts (HFF)
T1 sequence (P35354 18-604): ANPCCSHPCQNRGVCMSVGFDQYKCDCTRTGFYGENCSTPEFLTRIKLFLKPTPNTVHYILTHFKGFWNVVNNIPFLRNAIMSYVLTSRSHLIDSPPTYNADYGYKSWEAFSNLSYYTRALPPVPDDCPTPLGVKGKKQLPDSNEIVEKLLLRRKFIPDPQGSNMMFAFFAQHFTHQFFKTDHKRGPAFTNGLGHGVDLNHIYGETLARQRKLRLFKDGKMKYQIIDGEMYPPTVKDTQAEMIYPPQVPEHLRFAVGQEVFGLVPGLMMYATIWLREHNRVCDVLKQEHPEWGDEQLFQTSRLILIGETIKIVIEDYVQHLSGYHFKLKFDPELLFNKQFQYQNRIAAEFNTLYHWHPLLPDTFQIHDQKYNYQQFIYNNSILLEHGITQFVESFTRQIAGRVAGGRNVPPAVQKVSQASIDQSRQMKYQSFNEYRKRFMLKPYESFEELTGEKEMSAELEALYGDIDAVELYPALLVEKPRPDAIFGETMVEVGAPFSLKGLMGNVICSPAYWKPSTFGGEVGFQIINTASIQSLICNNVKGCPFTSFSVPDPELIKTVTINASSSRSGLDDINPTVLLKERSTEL
Protocol: The COX I and COX II inhibitory activity of compounds of this invention in a cell based assay was determined as described below.
The inhibitory activity of test compounds against cell associated COX-2 was measured using primary cultures of human foreskin fibroblasts (HFF). HFF cultures were obtained from ATCC, grown in DMEM medium (Gibco) and used between 13-30 passages. Cells were plated in 96-well microtiter plates at a density of 6-8×10^4 cells/well in DMEM containing 10% fetal calf serum (Sigma) and cultured at 37° C. until they became confluent. The medium was removed and the cells were washed once with PBS. COX-2 activity was induced by incubating the cells with fresh DMEM containing 0.1 μM phorbol 12-myristate 13-acetate (PMA, Sigma) and 1ng/ml of human interleukin-1 (Sigma) at 37° C. After 16 h the medium was removed and the cells were washed twice with phosphate buffered saline (PBS, Gibco). 200 μl/well of fresh medium containing desired concentrations of the test compounds in DMSO, or the carrier vehicle (control wells) was added and the cells incubated at 37° C. for 30 minutes; after which 5 μM calcium ionophore A23187 (Sigma) was added and the incubation was continued for an additional 10 minutes. The reaction was terminated by transferring the plates to ice. The culture supernatants were transferred and appropriately diluted, and the amount of prostaglandin E2 (PGE2) present in each supernatant was quantitated using an ELISA kit (Cayman Chemicals).
The COX I and COX II inhibitory activities in the cell based assay (expressed as IC50) of some compounds of the invention were: […]

[2] = tested on: prostaglandin E2 synthesis; assay: Inhibition of eicosanoid (PGE2) synthesis in vivo, carrageenan air-pouch model in rats; parameters: species or system rat; settings: 10 mg/Kg, oral, male rats
Protocol: In this assay, an air-pouch is created in the rat and the PGE2 levels in the air-pouch exudate are measured by enzyme immunoassay. Briefly, male rats were anesthetized using a 60:40 CO2 :O2 mixture and subsequently injected subcutaneously with 20 ml of sterilized air, under aseptic conditions, in the proximal area of the dorsum. This injection of sterile air causes the creation of a subcutaneous "air pouch". The next day, a further 10 ml of sterile air was injected into the previously formed pouch using the same technique. […] Control rats received vehicle alone. After 30 minutes, 5 ml of a 0.5% solution of carrageenan (Sigma, Lambda Type IV) was injected into the air pouch. The rats were euthanized 3 hr after the compound administration. […] The total exudate volume was recorded, and the samples were analyzed for PGE2 and 6-keto PGF1 by ELISA (Titerzyme®, PerSeptive Diagnostics) and TxB2 by radioimmuno assay (New England Nuclear Research, Catalog No. NEK-037), according to the manufacturer's directions.
The mean concentrations of PGE2 were calculated for each group. The anti-inflammatory activity of test materials is expressed as the percent inhibition of PGE2 formation in the test group relative to the control group.

COX II [3] = biological target: T1, COX II; assay: Inhibition of COX II in vitro, partially purified enzyme, radiometric assay; type: biochemical; parameters: made in house; settings: 20 micromolar arachidonic acid
Protocol: (§1) The COX I and COX II inhibitory activity of compounds of this invention in vitro was determined using partially purified COX I and COX II enzymes, prepared as described in J. Barnett et al, Biochim. Biophys.
(§2) COX I and COX II samples were diluted with Tris-HCl buffer (50 mM Tris-HCl, pH 7.9) containing 2 mM EDTA and 10% glycerol and reconstituted by incubating first with 2 mM phenol for 5 minutes and then with 1 micromolar hematin for an additional 5 minutes. 125 μl of the reconstituted COX I or COX II enzyme were preincubated for 10 minutes at room temperature in a shaking water bath with the compounds of the invention dissolved in 2-15 μl of DMSO or the carrier vehicles (control samples). The enzyme reaction was initiated by adding 25 μl of 1-[14C]arachidonic acid (80,000-100,000 cpm/tube; 20 micromolar final concentration) and the reaction was allowed to continue for an additional 45 seconds. The reaction was terminated by adding 100 μl of 2N HCl and 750 μl water. An aliquot (950 μl) of the reaction mixture was loaded onto a 1 ml C18 Sep-Pak column (J. T. Baker, Phillipsburg, N.J.) which had been previously washed with 2-3 ml methanol and equilibrated with 5-6 ml distilled water. Oxygenated products were quantitatively eluted with 3 ml of acetonitrile/water/acetic acid (50:50:0.1, v/v) and the radioactivity in the eluate determined in a scintillation counter.

COX I = COX I (Homo sapiens, UniProt P23219); assay: Inhibition of COX I in vitro, partially purified enzyme, radiometric assay; type: biochemical; parameters: made in house; settings: 20 micromolar arachidonic acid
Sequence of COX I (P23219 24-599): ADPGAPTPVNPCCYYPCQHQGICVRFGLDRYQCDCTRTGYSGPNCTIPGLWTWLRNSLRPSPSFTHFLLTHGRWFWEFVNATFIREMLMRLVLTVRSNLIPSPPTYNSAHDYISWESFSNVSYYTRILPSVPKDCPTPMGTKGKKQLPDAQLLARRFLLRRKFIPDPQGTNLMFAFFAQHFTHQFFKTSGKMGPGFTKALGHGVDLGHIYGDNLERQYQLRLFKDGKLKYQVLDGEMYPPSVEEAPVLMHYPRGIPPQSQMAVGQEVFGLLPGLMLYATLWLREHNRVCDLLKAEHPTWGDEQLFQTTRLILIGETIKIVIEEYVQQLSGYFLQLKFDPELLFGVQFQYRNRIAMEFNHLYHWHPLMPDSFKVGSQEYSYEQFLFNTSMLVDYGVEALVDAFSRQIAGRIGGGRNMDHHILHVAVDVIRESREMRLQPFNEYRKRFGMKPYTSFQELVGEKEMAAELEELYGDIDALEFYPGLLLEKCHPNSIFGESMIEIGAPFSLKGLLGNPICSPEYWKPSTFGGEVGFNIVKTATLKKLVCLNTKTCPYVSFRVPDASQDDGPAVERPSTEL
Protocol: as §1, §2

- IC50 (COX II [1]): 2000 nM
- IC50 (COX II [3]): 1800 nM
- IC50 (COX I): 391000 nM
SMILES: COc1ccc(C(=O)c2cccc(Cc3ccc(=O)[nH]n3)c2C)cc1 [Cpd 11, 6-[3-(4-methoxybenzoyl)-2-methylbenzyl]-2H-pyridazin-3-one]
- % inhibition of air pouch PGE2 formation [2]: 80%
